Measured values as given in patent US10791740B2, “Enhancement of antibiotic efficacy” (priority 2014, dated 2020).
Values after ≈ are worked out from the molar mass of the structure shown. Where two headings read alike, the source gives them in different places.

Tests used:
[1] = tested on: tetracycline resistant E. coli; type: cell-based, Escherichia coli; conditions: for MIC: single agent, Table 5; for MIC (μM) of amphiphile alone: Tables 6 and 7
Text: (§1) Certain aspects are drawn to a method for increasing or enhancing the antimicrobial activity of an antimicrobial agent. As used herein, the “antimicrobial activity” of an antimicrobial agent is defined as the property of a substance to inhibit the growth and reproduction of a microbial organism or to kill it. Common terms generally applied to bacteria are bacteriostatic (stops growth) and bactericidal (kills bacteria). Depending on the concentrations applied, microbial growth can be slowed or stopped in comparison to concurrent experiments conducted in the absence of an antimicrobial agent. Depending on the concentrations applied, additional microbe death can occur in comparison to concurrent experiments conducted in the absence of an antimicrobial agent. […] The MIC is the lowest concentration of any agent having antimicrobial activity that inhibits the growth of a microorganism as judged by visual inspection. MIC can be determined by inoculating media with the organism and adding the antimicrobial agent diluted successively in half.
(§2) Among the organisms studied are several strains of the bacterium E. coli.
N,N′-Dibenzyl-4,13-diaza-18-crown-6 is referred to in the table as dibenzyldiaza-18-crown-6.
(§3) Minimal Inhibitory Concentration (MIC) Procedure. […] Prepare initial concentration of all the compounds required. • 5. […] Vortex each test tube for 2-3 seconds. • 11.

DH5α E. coli [2] = test: MIC of single agents against DH5α E. coli; type: cell-based, Escherichia coli; conditions: for MIC to DH5α E. coli: single agent, values of the running text
Text: as §1, §2, §3

K-12 E. coli [3] = test: MIC of single agents against K-12 E. coli
E. coli [4] = test: MIC determination, E. coli (Table 1); type: cell-based, Escherichia coli; conditions: single agent
Text: as §1, §2, §3

HEK-293 cells = test: MTT assay of toxicity to HEK-293 cells
Method: The toxicity of C6. C8, C10. C11 and C14 lariat ethers to HEK-293 cells was determined by using an MTT assay. […] The abscissa is a logarithmic scale for the concentrations ranging from 1 μM to 1000 μM (1 mM) used in the experiment. The ordinate represents percent survival of HEK-293 cells.
Growth medium containing DMEM with high glucose (ATCC). 10% fetal bovine serum (FBS: Sigma-Aldrich) and 10 μg/mL of blasticidin (Thermo-Fischer) was prepared. HEK 293 cells were thawed out from cryo-preserved samples in 10 mL growth media, centrifuged at 500 rpm for 10 minutes to remove preservative. The cells were then resuspended in fresh growth medium and cultured using a T-75 flask (Thermo-Fischer) at 37° C. and 5% CO2. Cells were monitored for confluence and growth medium was replaced every 48 h, until cells were placed onto a 96-well plate for toxicity studies.
After reaching 80-90% confluence, cells were trypsinized and suspended in media containing DMEM and 10% FBS (no antibiotics). The cells were counted on a hemacytometer and plated at a density of 20,000 cells per well in a 96-well plate and grown for 24 hours to reach 60-70% confluence. DMSO stocks of C6, C8, C10, C11 and C14 diaza-18-crown-6 lariat ethers were prepared at […] and diluted 1:10 to get working concentrations of 20 mM, 2 mM, and 0.2 mM. Each stock was further diluted […] into DMEM supplemented with 10% FBS to get final concentrations of 1 mM, 0.1 mM, 0.01 mM (10 μM) and 0.001 mM (1 μM). The original media was then removed from the cells and replaced with 200 μL media containing the desired concentration of compound. Three wells were used for each concentration providing experimental triplicates. […] The absorbance was measured at 570 nm and nonspecific absorbance was corrected at 650 nm, using SpectraMax340 micro plate reader.
The experiment was performed in triplicate and the average of percent survival of three experiments was determined. […] The lethal dose 50 (LD50) for each compound was calculated by using the equation for a logarithmic regression curve.

S. cerevisiae = test: MIC determination, S. cerevisiae (Table 1); type: cell-based, Saccharomyces cerevisiae; conditions: single agent
Text: (§4) Certain aspects are drawn to a method for increasing or enhancing the antimicrobial activity of an antimicrobial agent. As used herein, the “antimicrobial activity” of an antimicrobial agent is defined as the property of a substance to inhibit the growth and reproduction of a microbial organism or to kill it. Common terms generally applied to bacteria are bacteriostatic (stops growth) and bactericidal (kills bacteria). Depending on the concentrations applied, microbial growth can be slowed or stopped in comparison to concurrent experiments conducted in the absence of an antimicrobial agent. Depending on the concentrations applied, additional microbe death can occur in comparison to concurrent experiments conducted in the absence of an antimicrobial agent. The results of minimum inhibitory concentration (MIC) evaluations and growth curves are presented herein and the conditions are specified. The MIC is the lowest concentration of any agent having antimicrobial activity that inhibits the growth of a microorganism as judged by visual inspection. MIC can be determined by inoculating media with the organism and adding the antimicrobial agent diluted successively in half. […] Reference herein to increasing or enhancing activity, efficacy, potency, and the like are used interchangeably to mean that when the synthetic amphiphile is present, the ability of the antimicrobial agent to inhibit the growth of or to kill an organism will be manifested at a concentration lower than would be required to achieve the same results in the absence of said synthetic amphiphile.
(§5) Among the organisms studied are several strains of the bacterium E. coli. […] Experiments were conducted to determine the MIC values for the synthetic amphiphiles known as lariat ethers according to the procedures described in Antimicrobial M07-A9: Methods for Dilution Antimicrobial Susceptibility Tests for Bacteria that Grow Aerobically; Clinical and Laboratory Standards Institute, 2012; Vol. 32, 67 pp. MIC values so determined for several lariat ethers and for several antibiotics are shown in Table 1.

B. stubtilis = test: MIC determination, B. subtilis (Table 1); type: cell-based, Bacillus subtilis; conditions: single agent
Text: as §4, §5

[5] = tested on: tetracycline resistant E. coli
DH5α E. coli [6] = test: Combination of lariat ether and antibiotic against DH5α E. coli; conditions: 0.4 vol-% DMSO
K-12 E. coli [7] = test: Combination of amphiphile and antibiotic against K-12 E. coli
DH5α E. coli [8] = test: Inhibitory concentration (IC50) to DH5α E. coli cells (FIG. 4); type: cell-based, Escherichia coli
Text: Two commonly used abbreviations are LD50 and IC50. The former is the concentration of an agent that comprises a lethal dose to 50% of the organism under study. The latter is the concentration of agent that inhibits growth of 50% of the organism under study. […] The abscissa represents the number of (CH2) groups in spacer chains. The ordinate is logarithmic and reflects the concentrations (in μM) of the various lariat ethers used.

E. coli [9] = conditions: Journal of the American Chemical Society 2002, 124, 9022-3, cited from earlier work

## N,N′-di-n-decyl-4,13-diaza-18-crown-6 [C10 lariat ether]
[1]
  MIC: 16 µM
[1]; tetracycline resistant E. coli
  MIC (μM) of amphiphile alone: 16 µM
DH5α E. coli [2]
  MIC to DH5α E. coli: 12 µM
K-12 E. coli [3]
  MIC (μM) of amphiphile alone: 12 µM
E. coli [4]
  MIC: 11 µM
HEK-293 cells; C6 to C14 lariat ethers compared
  toxicity to HEK-293, rank among lariat ethers: highest toxicity
S. cerevisiae
  MIC (μM) S. cerevisiae: 2.8 µM
B. stubtilis
  MIC (μM) B. stubtilis: 2.8 µM

## CN(C)[C@@H]1C(O)=C(C(N)=O)C(=O)[C@@]2(O)C(O)=C3C(=O)c4c(O)cccc4[C@@](C)(O)[C@H]3C[C@@H]12 [tetracycline, reference compound]
[1]; tetracycline resistant E. coli
  MIC (μM) of antibiotic alone: ~900 µM
K-12 E. coli [3]
  MIC (μM) of antibiotic alone: 6 µM
[5]; Tetracycline with 8 μM C11 lariat ether
  Antibiotic Used (μM) in combination: 175 µM
[5]; Tetracycline with 12 μM C11 lariat ether
  Antibiotic Used (μM) in combination: 87 µM
[5]; Tetracycline with 16 μM C11 lariat ether
  Antibiotic Used (μM) in combination: 87 µM
[5]; Tetracycline with 18 μM C11 lariat ether
  Antibiotic Used (μM) in combination: 87 µM
DH5α E. coli [6]; tetracycline with 4 μM n-C11 lariat ether
  Antibiotic Used (μM) in combination: 3 µM
DH5α E. coli [6]; tetracycline with 12 μM n-C11 lariat ether
  Antibiotic Used (μM) in combination: 1 µM
DH5α E. coli [6]; tetracycline with 16 μM n-C11 lariat ether
  Antibiotic Used (μM) in combination: 0.25 µM
DH5α E. coli [6]; tetracycline with 18 μM n-C11 lariat ether
  Antibiotic Used (μM) in combination: 1.5 µM
K-12 E. coli [7]; Tetracycline with 6 μM C11 lariat ether
  Antibiotic Used (μM) in combination: 2.5 µM

## NC[C@H]1O[C@H](O[C@H]2[C@H](O)[C@@H](O[C@H]3O[C@H](CO)[C@@H](O)[C@H](N)[C@H]3O)[C@H](N)C[C@@H]2N)[C@H](N)C[C@@H]1O [tobramycin, reference compound]
E. coli [4]; Escherichia coli
  MIC: 15 µM (≈ 7.01 µg/mL)

## CC[C@H]1OC(=O)[C@H](C)[C@@H](O[C@H]2C[C@@](C)(OC)[C@@H](O)[C@H](C)O2)[C@H](C)[C@@H](O[C@@H]2O[C@H](C)C[C@H](N(C)C)[C@H]2O)[C@](C)(O)C[C@@H](C)C(=O)[C@H](C)[C@@H](O)[C@]1(C)O [erythromycin, reference compound]
E. coli [4]; Escherichia coli
  MIC: > 400 µM

## c1ccc(CN2CCOCCOCCN(CCCCCCCCCCCCCCN3CCOCCOCCN(CCCCCCCCCCCCCCN4CCOCCOCCN(Cc5ccccc5)CCOCCOCC4)CCOCCOCC3)CCOCCOCC2)cc1 [C14 hydraphile]
[1]
  MIC: 2 ± 0.125 µM (≈ 2.71 µg/mL)
[1]; tetracycline resistant E. coli
  MIC (μM) of amphiphile alone: 2 µM

## CO[C@H]1/C=C/O[C@@]2(C)Oc3c(C)c(O)c4c(O)c(c(/C=N/N5CCN(C)CC5)c(O)c4c3C2=O)NC(=O)/C(C)=C\C=C\[C@H](C)[C@H](O)[C@@H](C)[C@@H](O)[C@@H](C)[C@H](OC(C)=O)[C@@H]1C [rifampicin, reference compound]
K-12 E. coli [3]
  MIC (μM) of antibiotic alone: 20 µM
DH5α E. coli [6]; rifampicin with 8 μM n-C11 lariat ether
  Antibiotic Used (μM) in combination: 15 µM
DH5α E. coli [6]; rifampicin with 12 μM n-C11 lariat ether
  Antibiotic Used (μM) in combination: 6 µM
DH5α E. coli [6]; rifampicin with 16 μM n-C11 lariat ether
  Antibiotic Used (μM) in combination: 6 µM
DH5α E. coli [6]; rifampicin with 18 μM n-C11 lariat ether
  Antibiotic Used (μM) in combination: 3 µM
K-12 E. coli [7]; Rifampicin with 6 μM C11 lariat ether
  Antibiotic Used (μM) in combination: 10 µM

## N,N′-di-n-octyl-4,13-diaza-18-crown-6 [C8 lariat ether]
[1]
  MIC: 120 µM
[1]; tetracycline resistant E. coli
  MIC (μM) of amphiphile alone: 120 µM
DH5α E. coli [2]; DH5α E. coli, Tables 2 and 3
  MIC (μM) of lariat ether alone: >120 µM
DH5α E. coli [2]
  MIC to DH5α E. coli: > 240 µM
DH5α E. coli [2]; listed as C8 Lariat
  MIC to DH5α E. coli: 120 µM
K-12 E. coli [3]
  MIC (μM) of amphiphile alone: 300 µM
E. coli [4]
  MIC: 120 µM
DH5α E. coli [8]; DH5α E. coli, FIG. 4
  IC50: 150 µM
HEK-293 cells
  LD50 to HEK-293: 33 µM
S. cerevisiae
  MIC (μM) S. cerevisiae: 25 µM
B. stubtilis
  MIC (μM) B. stubtilis: 105 µM

## N,N′-di-n-dodecyl-4,13-diaza-18-crown-6 [C12 lariat ether]
[1]; tetracycline resistant E. coli
  MIC (μM) of amphiphile alone: >512 µM
DH5α E. coli [2]; previous studies
  toxicity to DH5α E. coli cells: did not show toxicity
K-12 E. coli [3]
  MIC (μM) of amphiphile alone: >512 µM
E. coli [4]
  MIC: >300 µM
S. cerevisiae
  MIC (μM) S. cerevisiae: 2.5 µM
B. stubtilis
  MIC (μM) B. stubtilis: 2.5 µM

## c1ccc(CN2CCOCCOCCN(CCCCCCCCCCCCN3CCOCCOCCN(CCCCCCCCCCCCN4CCOCCOCCN(Cc5ccccc5)CCOCCOCC4)CCOCCOCC3)CCOCCOCC2)cc1 [C12 hydraphile]
[1]
  MIC: 5 ± 0.5 µM (≈ 6.5 µg/mL)
[1]; tetracycline resistant E. coli
  MIC (μM) of amphiphile alone: 5 µM
E. coli [9]; listed as C12 benzyl hydraphile
  toxicity to E. coli: killed E. coli
E. coli [9]; listed as benzyl C12 hydraphile
  toxicity to E. coli: killed the bacteria

## N,N′-di-n-tetradecyl-4,13-diaza-18-crown-6 [C14 lariat ether]
E. coli [4]
  MIC: >300 µM
DH5α E. coli [8]; at 180 μM
  activity against E. coli: inactive
S. cerevisiae
  MIC (μM) S. cerevisiae: >300 µM
B. stubtilis
  MIC (μM) B. stubtilis: >300 µM
